# Assay results from article PMC4556714, “Drug Development in Conformational Diseases: A Novel Family of Chemical Chaperones that Bind and Stabilise Several Polymorphic Amyloid Structures” (PLoS ONE, 2015).
# Experiments:
# [1] = target: T1, Bovine serum albumin (BSA, fraction V) (Bos taurus, UniProt P02769); experiment: ThT fluorescence, BSA fibrillation at […]; format: biochemical; settings: BSA 100 μmol/L, glycine buffer pH 3, NaCl 100 mM, 65°C
# T1 construct: gene ALB; mature native serum albumin, 585 residues, fraction V from Roche; heat/acid-induced amyloid aggregation
# [2] = target: T1, Bovine serum albumin (BSA, fraction V); experiment: ThT fluorescence, inhibition of BSA amyloid aggregation; format: biochemical
# T1 sequence (P02769 25-607): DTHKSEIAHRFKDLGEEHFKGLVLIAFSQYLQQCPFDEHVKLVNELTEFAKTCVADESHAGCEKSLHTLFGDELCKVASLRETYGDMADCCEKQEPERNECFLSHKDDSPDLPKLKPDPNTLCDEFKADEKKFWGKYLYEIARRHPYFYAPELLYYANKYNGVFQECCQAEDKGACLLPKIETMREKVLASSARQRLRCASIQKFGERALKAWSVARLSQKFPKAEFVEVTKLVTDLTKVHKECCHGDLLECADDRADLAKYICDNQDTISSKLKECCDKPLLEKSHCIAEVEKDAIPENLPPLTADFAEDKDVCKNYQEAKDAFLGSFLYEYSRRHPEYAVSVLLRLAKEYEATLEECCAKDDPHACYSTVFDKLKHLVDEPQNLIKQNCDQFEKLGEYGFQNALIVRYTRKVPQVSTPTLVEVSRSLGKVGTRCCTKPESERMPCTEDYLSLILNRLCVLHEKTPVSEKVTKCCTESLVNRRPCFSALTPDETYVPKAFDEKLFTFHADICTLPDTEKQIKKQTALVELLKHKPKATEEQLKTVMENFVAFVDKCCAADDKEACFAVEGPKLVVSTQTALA
IC50 [2] [µM],Compound,also measured
,"CSC(=S)NCCNC(=O)CCC(=O)Nc1cccc2ccccc12 [B, methyl (2-{[4-(1-naphthylamino)-4-oxobutanoyl]amino}ethyl) dithiocarbamate]","% ThT fluorescence change at 100 μmol/L [1]: chaperones A, C, D, B and E had a strong inhibitory effect on BSA fibrillation"
40,"O=C(CCC(=O)Nc1cccc2ccccc12)NCCNC(=O)CCC(=O)Nc1cccc2ccccc12 [F, N3,N3'-ethane-1,2-dyilbis(N1-1-naphthylsuccinamide)]",
,"NCCCCNC(=O)CCC(=O)Nc1cccc2ccccc12 [G, N-(4-aminobutyl)-N'-1-naphthylsuccinamide]","% ThT fluorescence change at 100 μmol/L ([1]; aggregation enhancer): At the same concentrations, the chaperones F and G increased BSA fibrillation"
6.37,"O=C(O)CCNC(=O)CCC(=O)Nc1cccc2ccccc12 [D, N-[4-(1-naphthylamino)-4-oxobutanoyl]-β-alanine]",
6.34,"NCCNC(=O)CCC(=O)Nc1cccc2ccccc12 [A, N-(2-aminoethyl)-N'-1-naphthylsuccinamide]",
5.38,"O=C(O)CCCCCNC(=O)CCC(=O)Nc1cccc2ccccc12 [E, 6-{[4-(1-naphthylamino)-4-oxobutanoyl]amino} hexanoic acid]",
